ChEMBL document CHEMBL1201862, “PubChem BioAssay data set” (2004)
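Five compound concentrations were applied to cells in 96-well plates for 48 hours; endpoints were derived by simple linear interpolation of the resulting dose-response curve. GI50 marks 50% less growth.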 Calls of active or inactive are those of the source. No stated cut-off is given here; in the data, active = GI50 up to about 1.1 µM and inactive = higher.

What was measured:
Test in all cases: inhibition of tumour cell growth, NCI panel, 48 h
[1] = test system: 786-0
[2] = test system: EKVX
[3] = test system: HT-29
[4] = test system: IGROV-1
[5] = test system: M14
[6] = test system: MOLT-4
[7] = test system: NCI-H522
[8] = test system: OVCAR-4
[9] = test system: OVCAR-8
[10] = test system: RXF 393
[11] = test system: SF-295
[12] = test system: SF-539
[13] = test system: SK-MEL-5
[14] = test system: SNB-19
[15] = test system: SR
[16] = test system: TK-10
[17] = test system: UACC-257
[18] = test system: SK-MEL-2

SMILES | GI50 [1] | GI50 [2] | GI50 [3] | GI50 [4] | GI50 [5] | GI50 [6] | GI50 [7] | GI50 [8] | GI50 [9] | GI50 [10] | GI50 [11] | GI50 [12] | GI50 [13] | GI50 [14] | GI50 [15] | GI50 [16] | GI50 [17] | GI50 [18]
Cc1c(C(=N)N)oc2ccccc12 | > 100 µM (inactive) | > 100 µM (inactive) | > 100 µM (inactive) | > 100 µM (inactive) | > 100 µM (inactive) | > 100 µM (inactive) | > 100 µM (inactive) | > 100 µM (inactive) | > 100 µM (inactive) | > 100 µM (inactive) | > 100 µM (inactive) | > 100 µM (inactive) | > 100 µM (inactive) | > 100 µM (inactive) | > 100 µM (inactive) | > 100 µM (inactive) | > 100 µM (inactive) | –
Cn1cnc([N+](=O)[O-])c1Sc1nc2cc(Cl)c(F)cc2[nH]1 | > 10 µM (inactive) | 1.38 µM (inactive) | 14.9 µM (inactive) | 7.66 µM (inactive) | 13.5 µM (inactive) | 2.08 µM (inactive) | – | 4.34 µM (inactive) | 3.75 µM (inactive) | 3.69 µM (inactive) | 48.4 µM (inactive) | 4.32 µM (inactive) | 11.7 µM (inactive) | 26.4 µM (inactive) | 1.75 µM (inactive) | 14.5 µM (inactive) | 11.6 µM (inactive) | –
CC12CCC([C@H](N3CCOCC3)/C1=N\OCCN1CCCC1)C2(C)C (stereo partly specified) | > 100 µM (inactive) | > 100 µM (inactive) | > 100 µM (inactive) | > 100 µM (inactive) | > 100 µM (inactive) | > 100 µM (inactive) | > 100 µM (inactive) | > 100 µM (inactive) | > 100 µM (inactive) | > 100 µM (inactive) | > 100 µM (inactive) | > 100 µM (inactive) | > 100 µM (inactive) | > 100 µM (inactive) | > 100 µM (inactive) | > 100 µM (inactive) | > 100 µM (inactive) | > 100 µM (inactive)
CNC(SC)=C1C(=O)OC(C)(C)OC1=O | > 100 µM (inactive) | > 100 µM (inactive) | > 100 µM (inactive) | > 100 µM (inactive) | > 100 µM (inactive) | > 100 µM (inactive) | > 100 µM (inactive) | – | > 100 µM (inactive) | 68.9 µM (inactive) | > 100 µM (inactive) | – | > 100 µM (inactive) | > 100 µM (inactive) | > 100 µM (inactive) | > 100 µM (inactive) | > 100 µM (inactive) | 37.1 µM (inactive)
CN(C)P(=O)(/C(N)=N/Nc1ccc([N+](=O)[O-])cc1)N(C)C | > 100 µM (inactive) | > 100 µM (inactive) | – | – | > 100 µM (inactive) | > 100 µM (inactive) | 48 µM (inactive) | 85.1 µM (inactive) | > 100 µM (inactive) | – | – | > 100 µM (inactive) | > 100 µM (inactive) | > 100 µM (inactive) | > 100 µM (inactive) | > 100 µM (inactive) | > 100 µM (inactive) | > 100 µM (inactive)
CC1=Nc2ccccc2S(=O)(=O)N1 | > 100 µM (inactive) | > 100 µM (inactive) | > 100 µM (inactive) | > 100 µM (inactive) | > 100 µM (inactive) | > 100 µM (inactive) | > 100 µM (inactive) | > 100 µM (inactive) | > 100 µM (inactive) | > 100 µM (inactive) | > 100 µM (inactive) | > 100 µM (inactive) | > 100 µM (inactive) | > 100 µM (inactive) | > 100 µM (inactive) | > 100 µM (inactive) | > 100 µM (inactive) | > 100 µM (inactive)
COc1cc2c([C@@H](OC(=O)c3ccccc3)c3ccc4c(c3)OCO4)nccc2c(OC)c1OC | > 100 µM (inactive) | 43.6 µM (inactive) | 67.3 µM (inactive) | > 100 µM (inactive) | 53.6 µM (inactive) | 13.5 µM (inactive) | 19.4 µM (inactive) | 18.7 µM (inactive) | 49.5 µM (inactive) | 20.2 µM (inactive) | 44.3 µM (inactive) | 82.2 µM (inactive) | 17.9 µM (inactive) | 93.8 µM (inactive) | 17.8 µM (inactive) | 75.9 µM (inactive) | 38.4 µM (inactive) | –
O=C(CCN1CCN(c2ccccc2)CC1)N1CCc2c([nH]c3ccccc23)C1c1cccnc1 (stereo unspecified) | 15.4 µM (inactive) | 16.9 µM (inactive) | 15 µM (inactive) | 39.7 µM (inactive) | 15.8 µM (inactive) | 12 µM (inactive) | 15.4 µM (inactive) | 13.6 µM (inactive) | 16.6 µM (inactive) | 24.6 µM (inactive) | > 10 µM (inactive) | 18.7 µM (inactive) | 14.4 µM (inactive) | 23.3 µM (inactive) | 24.7 µM (inactive) | 5.81 µM (inactive) | 15.9 µM (inactive) | 16.3 µM (inactive)
O=C1c2ccccc2C(=O)C2C3c4ccccc4C(c4ccccc43)C12 (stereo unspecified) | 5.45 µM (inactive) | 14.7 µM (inactive) | 21.1 µM (inactive) | 22.9 µM (inactive) | 56.4 µM (inactive) | 12.7 µM (inactive) | 31.3 µM (inactive) | – | 12.6 µM (inactive) | 7.8 µM (inactive) | 12.8 µM (inactive) | 12.5 µM (inactive) | – | 26.9 µM (inactive) | 14.4 µM (inactive) | 24.5 µM (inactive) | 23.7 µM (inactive) | –
COC(=O)c1ccccc1C1=C([N+](=O)[O-])C(c2cccc(Br)c2)C(C#N)=C(N)O1 (stereo unspecified) | 25.6 µM (inactive) | 36.1 µM (inactive) | 43.5 µM (inactive) | 27.8 µM (inactive) | 28 µM (inactive) | 25.4 µM (inactive) | 13.6 µM (inactive) | – | 21 µM (inactive) | 18.3 µM (inactive) | > 100 µM (inactive) | 61 µM (inactive) | 86.5 µM (inactive) | 91.6 µM (inactive) | 18.2 µM (inactive) | 46.5 µM (inactive) | 36.1 µM (inactive) | > 100 µM (inactive)
N=C1NC2(O)C(=O)c3ccccc3C2(O)N1 (stereo unspecified) | > 100 µM (inactive) | > 100 µM (inactive) | > 100 µM (inactive) | > 100 µM (inactive) | > 100 µM (inactive) | > 100 µM (inactive) | > 100 µM (inactive) | > 100 µM (inactive) | > 100 µM (inactive) | > 100 µM (inactive) | > 100 µM (inactive) | > 100 µM (inactive) | > 100 µM (inactive) | > 100 µM (inactive) | > 100 µM (inactive) | > 100 µM (inactive) | > 100 µM (inactive) | > 100 µM (inactive)
CC(O)c1ccc[n+](Cc2ccccc2)c1 (stereo unspecified) | > 400 µM (inactive) | > 400 µM (inactive) | > 400 µM (inactive) | > 400 µM (inactive) | – | > 400 µM (inactive) | > 400 µM (inactive) | – | > 400 µM (inactive) | > 400 µM (inactive) | > 400 µM (inactive) | > 400 µM (inactive) | > 400 µM (inactive) | > 400 µM (inactive) | > 400 µM (inactive) | > 400 µM (inactive) | > 400 µM (inactive) | > 400 µM (inactive)
O=C(c1ccc(Cl)cc1)N(C(=S)N1CCN(c2ccccn2)CC1)c1ccccc1 | > 100 µM (inactive) | – | > 100 µM (inactive) | > 100 µM (inactive) | > 100 µM (inactive) | 43.6 µM (inactive) | > 100 µM (inactive) | > 100 µM (inactive) | > 100 µM (inactive) | 15.6 µM (inactive) | 99.3 µM (inactive) | > 100 µM (inactive) | 39.6 µM (inactive) | > 100 µM (inactive) | 39.3 µM (inactive) | > 100 µM (inactive) | > 100 µM (inactive) | > 100 µM (inactive)
CN(C)CCNC(=O)c1ccc(Cl)c2c(Nc3ccc(S(N)(=O)=O)cc3)c3ccccc3nc12 | 1.55 µM (inactive) | 5.62 µM (inactive) | 1.2 µM (inactive) | 2.72 µM (inactive) | 2.34 µM (inactive) | 0.198 µM (active) | 0.462 µM (active) | 1.93 µM (inactive) | 0.65 µM (active) | – | 3.41 µM (inactive) | 1.21 µM (inactive) | 2.49 µM (inactive) | 1.84 µM (inactive) | 0.151 µM (active) | 2.95 µM (inactive) | 3.44 µM (inactive) | 1.75 µM (inactive)
O=c1[nH][nH]c(=O)[nH]1 | > 100 µM (inactive) | > 100 µM (inactive) | > 100 µM (inactive) | > 100 µM (inactive) | > 100 µM (inactive) | > 100 µM (inactive) | > 100 µM (inactive) | > 100 µM (inactive) | – | > 100 µM (inactive) | > 100 µM (inactive) | > 100 µM (inactive) | > 100 µM (inactive) | > 100 µM (inactive) | > 100 µM (inactive) | > 100 µM (inactive) | > 100 µM (inactive) | > 100 µM (inactive)
COc1ccc(C2=NN(c3ccccc3)C[N+](c3ccc(C)cc3)=N2)cc1 | 43.6 µM (inactive) | 44.3 µM (inactive) | 73.1 µM (inactive) | 39.3 µM (inactive) | – | 19.8 µM (inactive) | 12.7 µM (inactive) | 13.2 µM (inactive) | 78.2 µM (inactive) | 19.5 µM (inactive) | > 100 µM (inactive) | – | > 10 µM (inactive) | 34.1 µM (inactive) | 34 µM (inactive) | > 100 µM (inactive) | > 100 µM (inactive) | –
